Measured values published in the NIST ThermoML archive (doi:10.1021/je300938w).

Experiments:
[1] = wn = mass fraction of the nth substance listed; conditions: 101 kPa, Liquid; for viscosity: Concentric cylinders viscometry; for mass density: Vibrating tube method
[2] = refractive index (Na D-line) (dimensionless); wn = mass fraction of the nth substance listed; conditions: 101 kPa, Liquid, Standard Abbe refractometry

OCCNCCO [diethanolamine] + O
Conditions	mass density, [1] [kg/m3]	refractive index, [2]	viscosity, [1] [mPa·s]
298.15 K, w1 = 0.05	1003.46	1.3394	1.059
298.15 K, w1 = 0.1	1009.09	1.34654	1.27
298.15 K, w1 = 0.15	1014.94	1.35439	1.503
298.15 K, w1 = 0.2	1020.92	1.36184	1.893
298.15 K, w1 = 0.25	1027.11	1.37017	2.376
303.15 K, w1 = 0.05	1001.98	1.33875	0.9498
303.15 K, w1 = 0.1	1007.53	1.34585	1.129
303.15 K, w1 = 0.15	1013.27	1.35368	1.319
303.15 K, w1 = 0.2	1019.14	1.36108	1.649
303.15 K, w1 = 0.25	1025.19	1.36935	2.05
308.15 K, w1 = 0.05	1000.3	1.33801	0.8569
308.15 K, w1 = 0.1	1005.77	1.34511	1.013
308.15 K, w1 = 0.15	1011.42	1.35288	1.174
308.15 K, w1 = 0.2	1017.18	1.36028	1.455
308.15 K, w1 = 0.25	1023.11	1.36847	1.795
313.15 K, w1 = 0.05	998.43	1.3372	0.7792
313.15 K, w1 = 0.1	1003.83	1.34427	0.9142
313.15 K, w1 = 0.15	1009.39	1.35208	1.051
313.15 K, w1 = 0.2	1015.05	1.35939	1.295
313.15 K, w1 = 0.25	1020.89	1.36756	1.585
318.15 K, w1 = 0.05	996.373	1.33633	0.7137
318.15 K, w1 = 0.1	1001.71	1.3434	0.8307
318.15 K, w1 = 0.15	1007.2	1.35122	0.948
318.15 K, w1 = 0.2	1012.78	1.35862	1.161
318.15 K, w1 = 0.25	1018.51	1.36659	1.411
323.15 K, w1 = 0.05	994.141	1.33539	0.653
323.15 K, w1 = 0.1	999.439	1.34245	0.7593
323.15 K, w1 = 0.15	1004.85	1.35028	0.8599
323.15 K, w1 = 0.2	1010.35	1.35777	1.048
323.15 K, w1 = 0.25	1016	1.36557	1.266
328.15 K, w1 = 0.05	991.746	1.33442	0.6017
328.15 K, w1 = 0.1	996.992	1.34148	0.6969
328.15 K, w1 = 0.15	1002.36	1.34935	0.7836
328.15 K, w1 = 0.2	1007.78	1.3568	0.9519
328.15 K, w1 = 0.25	1013.36	1.36453	1.141
333.15 K, w1 = 0.05	989.2	1.3334	0.5596
333.15 K, w1 = 0.1	994.401	1.34044	0.643
333.15 K, w1 = 0.15	999.713	1.3485	0.7178
333.15 K, w1 = 0.2	1005.07	1.35582	0.8673
333.15 K, w1 = 0.25	1010.55	1.36354	1.037
338.15 K, w1 = 0.05	986.501	1.33234	0.5269
338.15 K, w1 = 0.1	991.668	1.33938	0.5932
338.15 K, w1 = 0.15	996.929	1.34755	0.6619
338.15 K, w1 = 0.2	1002.23	1.3547	0.799
338.15 K, w1 = 0.25	1007.44	1.36244	0.9543
343.15 K, w1 = 0.05	983.659	1.33122	0.5002
343.15 K, w1 = 0.1	988.796	1.3382	0.5534
343.15 K, w1 = 0.15	993.878	1.34633	0.6185
343.15 K, w1 = 0.2	999.25	1.35356	0.7459
343.15 K, w1 = 0.25	1004.41	1.3614	0.8922

CC(O)CN(CC(C)O)CC(C)O (stereo not given) [triisopropanolamine] + O
Conditions	mass density, [1] [kg/m3]	refractive index, [2]	viscosity, [1] [mPa·s]
298.15 K, w1 = 0.05	1000.88	1.34069	1.083
298.15 K, w1 = 0.1	1004.3	1.34815	1.36
298.15 K, w1 = 0.15	1007.92	1.35565	1.71
298.15 K, w1 = 0.2	1011.66	1.36317	2.173
298.15 K, w1 = 0.25	1015.04	1.37063	2.857
303.15 K, w1 = 0.05	999.387	1.34001	0.9842
303.15 K, w1 = 0.1	1002.67	1.34737	1.198
303.15 K, w1 = 0.15	1006.1	1.35487	1.486
303.15 K, w1 = 0.2	1009.61	1.36227	1.859
303.15 K, w1 = 0.25	1012.73	1.36979	2.396
308.15 K, w1 = 0.05	997.679	1.33922	0.8883
308.15 K, w1 = 0.1	1000.83	1.34656	1.068
308.15 K, w1 = 0.15	1004.08	1.35393	1.309
308.15 K, w1 = 0.2	1007.37	1.36133	1.612
308.15 K, w1 = 0.25	1010.26	1.36869	2.051
313.15 K, w1 = 0.05	995.768	1.33853	0.8034
313.15 K, w1 = 0.1	998.785	1.34572	0.9574
313.15 K, w1 = 0.15	1001.88	1.35309	1.159
313.15 K, w1 = 0.2	1004.97	1.36039	1.418
313.15 K, w1 = 0.25	1007.64	1.36764	1.774
318.15 K, w1 = 0.05	993.671	1.33769	0.7315
318.15 K, w1 = 0.1	996.561	1.34484	0.8658
318.15 K, w1 = 0.15	999.498	1.35209	1.038
318.15 K, w1 = 0.2	1002.41	1.35933	1.257
318.15 K, w1 = 0.25	1004.88	1.36653	1.553
323.15 K, w1 = 0.05	991.401	1.3368	0.6696
323.15 K, w1 = 0.1	994.168	1.34387	0.7874
323.15 K, w1 = 0.15	996.957	1.35104	0.9361
323.15 K, w1 = 0.2	999.698	1.35818	1.125
323.15 K, w1 = 0.25	1002	1.36532	1.373
328.15 K, w1 = 0.05	988.96	1.33565	0.6164
328.15 K, w1 = 0.1	991.613	1.34287	0.7208
328.15 K, w1 = 0.15	994.263	1.34999	0.8494
328.15 K, w1 = 0.2	996.847	1.35718	1.013
328.15 K, w1 = 0.25	998.98	1.36417	1.224
333.15 K, w1 = 0.05	986.362	1.33481	0.5719
333.15 K, w1 = 0.1	988.905	1.34176	0.6624
333.15 K, w1 = 0.15	991.422	1.34883	0.7754
333.15 K, w1 = 0.2	993.857	1.35587	0.9186
333.15 K, w1 = 0.25	995.844	1.36291	1.104
338.15 K, w1 = 0.05	983.585	1.3337	0.535
338.15 K, w1 = 0.1	985.961	1.34063	0.6134
338.15 K, w1 = 0.15	988.426	1.34762	0.7114
338.15 K, w1 = 0.2	990.739	1.35461	0.8381
338.15 K, w1 = 0.25	992.589	1.36154	0.9991
343.15 K, w1 = 0.05	980.297	1.33265	0.5064
343.15 K, w1 = 0.1	982.83	1.33943	0.57
343.15 K, w1 = 0.15	985.312	1.34641	0.6596
343.15 K, w1 = 0.2	987.395	1.35319	0.7694
343.15 K, w1 = 0.25	989.222	1.36012	0.9113
